In one assay the test system is wild-type T. gondii. Kind of assay: labeling of parasites with [3H]pyrimidines (pyrimidine salvage). Conditions: parasites grown in host cells. It counts as cell-based, Toxoplasma gondii. The procedure:
(§1) Initial experiments primarily involved an enzymatic analysis of drug resistant mutants and the incorporation of various pyrimidine analogs into T. gondii RNA and DNA as an indication of pyrimidine salvage when parasites were grown in either normal host or mutant host cells. All biochemical communications between the parasite and host cells cross the vacuolar membrane which is now known to contain “pores” that permit the passage of nucleobases ranging in molecular mass from 112 daltons up to 244 daltons. The size of the pores is estimated to be approximately 1500 daltons. A T. gondii mutant resistant to 5-fluorodeoxyuridine (FUDR-1) had lost uracil phosphoribosyltransferase (UPRT), an enzyme which is absent in normal host cells (Pfefferkorn (1978) Expt. Parasitol. 44:26-35). […] FUDR-1 mutant parasites were not labeled with [^3H]deoxyuridine. […] FUDR-1 mutant parasites were not labeled with [^3H]uridine. […] FUDR-1 (UPRT knock-out) parasites were not labeled with [^3H]uracil.
Similarly, since uracil only labels the parasite, due to the parasite UPRT, which is absent in the host, the pyrimidine pools of the parasite are also unavailable to the host. Thus, there is no detectable pyrimidine traffic detected between the parasite and host.

In a further assay the test system is FUDR-1 mutant parasites. Kind of assay: labeling of FUDR-1 (UPRT knock-out) parasites with [3H]pyrimidines. It counts as cell-based, Toxoplasma gondii. The procedure:
as §1

The subject of a further assay is cps1 and cps2 mutants. The assay is described as follows: pyrimidine dependence of cps1 and cps2 replication and plaque formation. Conditions: for rescue of growth rate / replication of cps1 and cps2: relatively low (thymine, thymidine: moderate) concentrations in medium; for rescue of replication of cps1 and cps2: very high concentrations. Type of assay: cell-based, Toxoplasma gondii. The source says:
However, all of these mutants are somewhat “leaky” in that there was not an absolute growth (replication) dependence on uracil addition to the growth medium for replication. Each of these mutants grows at a moderate (½ of normal) growth rate for the first 2 days following infection of a host cell producing vacuoles that contained 16 to 32 parasites by 3 days post infection. In contrast, RH parasites are lysed out of their primary vacuoles at this time (3 days, >64 parasites). However, the cps mutants slow after 3 days and many parasites never (about ⅓) break out of their primary vacuole. If the primary vacuole breaks, a few parasites can be detected at the site of infection but the infection site always involves a small zone of infection that never forms a visible plaque in a standard 7 day plaque assay. To quantitate growth of these mutants, HFF flasks were inoculated with […] or cps2 parasites (about a multiplicity of infection (MOI) of 1 parasite per 20 HFF cells). After 2 hours of attachment and invasion (all of these mutants have normal attachment and invasion phenotypes as scored by counting percent entered parasites into host cells as a function of time post-inoculation), different concentrations of different pyrimidine compound was added to parallel infected HFF flasks. As a function of time post pyrimidine addition (t=0 hour) the number of parasites per vacuole was scored for 50 vacuoles as described by Fox et al. ((1999) supra). The number of parasite doublings was calculated based on 1 parasite entering each primary vacuole. Thus, 1 doubling=2 parasites per vacuole, 3 doublings=8 parasites per vacuole, and 5 doublings=32 parasites per vacuole. The pyrimidine dependence of cps1 and cps2 replication (doublings of parasites in the vacuole) was plotted graphically. […] The response to thymine and thymidine was additionally informative about the cause of the growth defect in cps1 and cps2. […] This is believed to be caused by the putative defect in the cps1 and cps2 mutants which is a reduced “pool” size of UMP. If UMP pools (ultimately used for RNA and DNA synthesis) are lowered it follows that a resulting decrease in TMP pools is expected since UMP is the precursor of TMP in T. gondii and all other apicomplexan parasites which normally lack TK activity. However, since cps1 and cps2 now express a TK activity carried into the parasite by the p53KOX3-1R plasmid, exemplified by sensitivity of these mutants to ganciclovir (specific to HSV TK), feeding parasites either thymine or thymidine is expected to increase TMP pools. Thus, it appears that moderate levels of thymine or thymidine partially rescue growth of cps1 and cps2 by restoring TMP pools. […] Since the parasite has no mechanism to convert TMP back to UMP there is still a defect in the UMP pool in cps1 and cps2 even with added thymine or thymidine and rescue is never complete. The ability of cps1 and cps2 mutants to form plaques on HFF monolayers in the standard 7 day assay paralleled the pyrimidine dependence of parasite replication in vacuoles.
The cps1 and cps2 mutants were inoculated intraperitoneally (i.p.) into balb/c mice to measure parasite virulence compared to virulent RH parasites. Both mutant cps1 and cps2 had equal virulence as RH parasites in balb/c mice (Jackson Labs), killing all mice within 10 days of i.p. inoculation (group size was four mice per parasite strain). Only 100 parasites (˜50 PFU) of each parasite strain was needed to kill all mice in each group. This pattern of virulence can be understood by re-examining the pyrimidine dependence of cps1 and cps2 growth. Uridine is believed to be the pyrimidine responsible for virulence of cps1 and cps2 in mice. Only 5 μM uridine completely rescues normal plaque size of cps1 and cps2 in vitro. Plasma concentrations of uridine in mice are approximately 5 to 10 μM.

The next assay deals with cps1-1 and cps2-1. The assay is described as follows: pyrimidine rescue of cps1-1 and cps2-1 replication and plaque formation. Type of assay: cell-based, Toxoplasma gondii. As to conditions: for rescue of replication (doublings) of cps1-1 and cps2-1: 36-hour replication assay, HFF; for rescue of plaque formation of cps1-1 and cps2-1: plaque assay. The protocol: No pyrimidine compound at less than 25 μM could rescue plaque formation of cps1-1 or cps2-1. […] Uridine was quite poor at rescue of plaque formation in cps1-1 and cps2-1.
A more detailed growth response to pyrimidine, measured as parasite replications (doublings) was performed for cps1-1 and cps2-1 and compared to the results previously obtained for […]. […] Uridine rescue was poor, with a slow restoration of growth at very high amounts, >400 μM. Deoxyuridine rescue was significant, but again, full growth rate was not restored at any concentration of deoxyuridine. Rescue with uracil was robust, but only in a limited range of concentration. Full restoration of growth rate in cps1-1 and cps2-1 was possible only with uracil added between 200 and 400 μM. […] This phenotype can only be observed in T. gondii pyrimidine auxotroph mutants, not in wild-type parasites with intact de novo pyrimidine synthesis pathways.
The pyrimidine growth dependence of mutant cps1-1 on the pyrimidine salvage pathway was further documented in thymidine interference experiments. Mutant cps1-1 plaques well in 250 μM uracil or deoxyuridine, but not in 1000 μM thymidine. Since thymidine at 1000 μM is known to inhibit approximately 90% of the parasite nucleoside phosphorylase activity specific for cleavage of deoxyuridine (Iltzsch, (1993) J. Euk. Micro. 40:24-28), growth of cps1-1 was tested in combinations of 1000 μM thymidine and 250 μM uracil or 250 μM deoxyuridine. All pyrimidine salvage in T. gondii must pass through uracil and UPRT conversion of uracil to UMP. In contrast, thymidine has no effect on UPRT activity. Thus, if growth of cps1-1 were dependent on deoxyuridine supplementation then replication in this condition may be inhibited by co-supplementing with 1000 μM thymidine. […] Thus, when cps1-1 is grown in deoxyuridine the parasite strictly requires nucleoside phosphorylase activity to cleave deoxyuridine for growth. […] Thus, cps1-1 and cps2-1 rely strictly on pyrimidine salvage enzymes for growth and further, the HFF host cell in vitro cannot supply sufficient pyrimidines for growth of cps1-1 or cps2-1. […] Such potential inhibitors can only be identified using a pyrimidine auxotroph such as provided in the instant invention.
To assess reversion, 10^6 to 10^7 cps1-1 or cps2-1 parasites were periodically inoculated into HFF flasks supplemented with 5 μM uridine. This concentration of uridine is sufficient to rescue the parent strains (cps1 and cps2) of cps1-1 and cps2-1.

Assay [1] has as its system parasite nucleoside phosphorylase activity specific for cleavage of deoxyuridine. Conditions: thymidine at 1000 μM; cited from earlier work.
A further assay concerns mammalian CPSII. As to conditions: hamster CPSII; cited from earlier work.

For `O=c1ccn([C@H]2C[C@H](O)[C@@H](CO)O2)c(=O)[nH]1` [deoxyuridine], in the assay on wild-type T. gondii, the “incorporation of [3H]-labeled pyrimidine into wild-type parasites” value (“incorporation” for short) is given as “incorporated into wild-type T. gondii”. Also, the “labeling of FUDR-1 mutant parasites with [3H]pyrimidine” value in the assay on FUDR-1 mutant parasites was “not labeled”. For the same compound, the “rescue of growth rate / replication of cps1 and cps2” value in the assay on cps1 and cps2 mutants was “completely rescued”. Also, in the assay with cps1-1 and cps2-1 (250 μM supplement), the “plaque formation of cps1-1” value is recorded as “plaques well”. In the assay on cps1-1 and cps2-1, the “rescue of replication (doublings) of cps1-1 and cps2-1” value is given as “significant”; the “rescue of plaque formation of cps1-1 and cps2-1” value was “significant growth rescue”.
On to `Cc1cn([C@H]2C[C@H](O)[C@@H](CO)O2)c(=O)[nH]c1=O` [thymidine], for which, in the assay with wild-type T. gondii, the “incorporation” value was “did not incorporate”. Also, in the assay on cps1 and cps2 mutants, the “rescue of growth rate / replication of cps1 and cps2” value is recorded as “partially rescued”; the “rescue of replication of cps1 and cps2” value is “did not rescue replication”. In addition, the “plaque formation of cps1-1” value in the assay on cps1-1 and cps2-1 (1000 μM thymidine) was “not”. Besides, the “effect on deoxyuridine-dependent growth of cps1-1” value in the assay with cps1-1 and cps2-1 (1000 μM thymidine plus 250 μM deoxyuridine) is given as “did block”. For the same compound, in the assay on cps1-1 and cps2-1 (1000 μM thymidine plus 250 μM uracil), the “effect on UPRT or uracil dependent growth of cps1-1” value is “did not affect”. In the assay on cps1-1 and cps2-1, the “rescue of replication (doublings) of cps1-1 and cps2-1” value is listed as “remained as a single non-replicated parasite”; the “rescue of plaque formation of cps1-1 and cps2-1” value was “no response was detected”. For the same compound, in assay [1], the “inhibition of parasite nucleoside phosphorylase activity” value is given as “approximately 90%”.
For the compound `Cc1c[nH]c(=O)[nH]c1=O` [thymine], in the assay on wild-type T. gondii, the “incorporation” value is given as “did not incorporate”. Also, in the assay on cps1 and cps2 mutants, the “rescue of growth rate / replication of cps1 and cps2” value is given as “partially rescued”; the “rescue of replication of cps1 and cps2” value was “did not rescue replication”. Also, in the assay with cps1-1 and cps2-1, the “rescue of replication (doublings) of cps1-1 and cps2-1” value was “remained as a single non-replicated parasite”; the “rescue of plaque formation of cps1-1 and cps2-1” value is on record as “no response was detected”.
As for `O=c1ccn([C@@H]2O[C@H](CO)[C@@H](O)[C@H]2O)c(=O)[nH]1` [uridine], the “incorporation” value in the assay on wild-type T. gondii is listed as “incorporated into wild-type parasites”. Besides, the “labeling of FUDR-1 mutant parasites with [3H]pyrimidine” value with FUDR-1 mutant parasites is “not labeled”. For the same compound, in the assay on cps1 and cps2 mutants (in vitro), the “uridine concentration that rescues cps1 and cps2 (normal plaque size)” value was 5 µM. Moreover, the “rescue of growth rate / replication of cps1 and cps2” value in the assay on cps1 and cps2 mutants is listed as “completely rescued”. The “support of growth of cps1-1 or cps2-1” value with cps1-1 and cps2-1 (5 μM uridine) is on record as “insufficient to support any growth”. In the assay with cps1-1 and cps2-1, the “rescue of replication (doublings) of cps1-1 and cps2-1” value was “poor”; the “rescue of plaque formation of cps1-1 and cps2-1” value was “quite poor”. Further, the “uridine concentration giving slow restoration of growth” value with cps1-1 and cps2-1 (cps1-1, cps2-1) is over 400 µM.
For the compound “H. a. S1345A: hamster CPSII with regulatory domain serine to alanine mutation”, in the assay on mammalian CPSII, the “Effect on CPS or CPSII” value is recorded as “Reduces PRPP activation”.
Regarding “H. a. T456A: mammalian (hamster) CPSII with MAPK site mutation T456A”, the “Effect on CPS or CPSII” value with mammalian CPSII is “Abolishes MAPK activation”.

The record behind these values is patent publication US8673289B2, “Attenuated uracil auxotroph of an apicomplexan and use thereof” (priority 2007, dated 2014).
